In patent US6720346B2, “Thiazole benzamide derivatives and pharmaceutical compositions for inhibiting cell proliferation” (Agouron Pharmaceuticals, Inc., priority 2001, dated 2004):

Assays:
[1] = biological target: T1, CDK2/cyclin A (Homo sapiens, UniProt P24941); assay: Inhibition of CDK2/cyclin A retinoblastoma kinase activity (Ki; % inhibition); type: biochemical; conditions: for Ki: apparent Ki, CDK2/cyclin A, Rb substrate
T1 construct: made in house; host or cells: CDK2: insect cells (baculovirus); cyclin A: E. coli
Outline: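 Apparent Ki values came from fitting concentration-dependent activity data to competitive (or competitive tight-binding) models, and % inhibition from single 30 nM screens of library compounds. Activity was measured as ³²P/³³P incorporation from 25 μM ATP into an Rb substrate by 10 or 19 nM CDK2/delta cyclin A at 30 °C over 60–75 min, pH 7.4.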

[2] = biological target: T2, human CDK4/cyclin D3 (Homo sapiens, UniProt P11802); assay: Inhibition of CDK4/cyclin D retinoblastoma kinase activity (Ki; % inhibition); type: biochemical; conditions: for Ki: apparent Ki, CDK4/cyclin D3, Rb substrate
T2 construct: made in house; host or cells: insect cells co-infected with baculovirus vectors
Outline: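 Radiometric filter-binding read-out: Rb residues 386-928 phosphorylated by 5 nM CDK4/cyclin D3(1-264) from baculovirus-infected insect cells, 25 μM ATP, HEPES pH 7.4, 30 °C. Run 20 min, or 60 min for tight-binding inhibitors. Screening at 30 nM theoretical compound; apparent Ki by competitive-inhibition fitting.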

[3] = system: HCT-116 cell line; assay: Inhibition of cell growth, MTT tetrazolium salt assay; type: cell-based; conditions: for IC50: Homo sapiens, HCT-116, 120 h, MTT, three to five days
Outline: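 HCT-116 cells in McCoy's 5A were dosed 4 h after plating with compounds in 0.5% DMSO and grown 3–5 days at 37 °C. Then 0.2 mg/mL MTT was added for 4 h and formazan absorbance read at 540 nm. IC50/IC90 came from semi-log plots against DMSO-only controls.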

[4] = HCT-116 cells, 0.25 μM compound

T2 sequence (P11802 whole entry): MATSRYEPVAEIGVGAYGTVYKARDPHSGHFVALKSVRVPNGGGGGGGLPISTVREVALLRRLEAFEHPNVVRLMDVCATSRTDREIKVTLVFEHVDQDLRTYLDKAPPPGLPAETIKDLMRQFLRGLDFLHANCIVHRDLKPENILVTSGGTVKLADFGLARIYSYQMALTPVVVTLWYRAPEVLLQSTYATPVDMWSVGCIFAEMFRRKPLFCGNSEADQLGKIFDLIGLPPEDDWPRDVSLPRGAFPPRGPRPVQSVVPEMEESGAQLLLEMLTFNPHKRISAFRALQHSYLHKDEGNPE
T2 sequence (P30281 1-264 partner limits assumed): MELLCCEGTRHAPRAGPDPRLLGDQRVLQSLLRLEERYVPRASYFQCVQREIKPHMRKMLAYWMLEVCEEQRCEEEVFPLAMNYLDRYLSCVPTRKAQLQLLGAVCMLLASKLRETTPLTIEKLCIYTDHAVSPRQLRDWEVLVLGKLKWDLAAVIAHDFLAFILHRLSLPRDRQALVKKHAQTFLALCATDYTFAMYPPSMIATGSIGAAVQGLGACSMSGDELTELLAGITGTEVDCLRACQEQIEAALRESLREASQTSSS

Structure (SMILES) | CDK2 % Inhibition at 0.03 μM ([1]; 0.03 μM compound) | CDK4 % Inhibition at 0.03 μM ([2]; 0.03 μM compound) | HCT-116 % Inhibition at 0.1 μM ([3]; HCT-116 cells, 0.1 μM compound) | HCT-116 % Inhibition at 0.25 μM [3, 4] | further results
NC(=O)CCNC(=O)c1ccc(Nc2nc(N)c(C(=O)c3c(F)cccc3F)s2)cc1 [Example G137] |  |  |  |  | CDK2 % Inhibition at 0.03 μM ([1]; at 0.03 μM): 2%; CDK4 % Inhibition at 0.03 μM ([2]; at 0.03 μM): 25%; HCT-116 % Inhibition at 0.1 μM ([3]; HCT-116, at 0.1 μM): 0%; HCT-116 % Inhibition at 0.25 μM ([3]; HCT-116, at 0.25 μM): 59%
CC(C)OCCNC(=O)c1ccc(Nc2nc(N)c(C(=O)c3c(F)cccc3F)s2)cc1 [Example G168] |  |  |  |  | CDK2 % Inhibition at 0.03 μM ([1]; at 0.03 μM): 4%; CDK4 % Inhibition at 0.03 μM ([2]; at 0.03 μM): 17%; HCT-116 % Inhibition at 0.1 μM ([3]; HCT-116, at 0.1 μM): 25%; HCT-116 % Inhibition at 0.25 μM ([3]; HCT-116, at 0.25 μM): 52%
Nc1nc(Nc2ccc(C(=O)NCCc3ccccc3)cc2)sc1C(=O)c1c(F)cccc1F [Example G91] |  |  |  |  | CDK2 % Inhibition at 0.03 μM ([1]; at 0.03 μM): −19%; CDK4 % Inhibition at 0.03 μM ([2]; at 0.03 μM): 9%; HCT-116 % Inhibition at 0.1 μM ([3]; HCT-116, at 0.1 μM): 34%; HCT-116 % Inhibition at 0.25 μM ([3]; HCT-116, at 0.25 μM): 68%
CN(C)CCNC(=O)c1ccc(Nc2nc(N)c(C(=O)c3c(F)cccc3F)s2)cc1Cl [C] |  |  |  |  | Ki [1]: 170 nM; Ki [2]: 27 nM; IC50 [3]: 210 nM
COc1cc(CNC(=O)c2ccc(Nc3nc(N)c(C(=O)c4c(F)cccc4F)s3)cc2)cc(OC)c1OC [Example G234] | 35% | 39% | 20% | 63% | 
Nc1nc(Nc2ccc(C(=O)N3CCC(CCO)CC3)cc2)sc1C(=O)c1c(F)cccc1F [Example G63] |  |  |  |  | CDK2 % Inhibition at 0.03 μM ([1]; at 0.03 μM): 4%; CDK4 % Inhibition at 0.03 μM ([2]; at 0.03 μM): 7%; HCT-116 % Inhibition at 0.25 μM ([3]; HCT-116, at 0.25 μM): 54%
COc1cc(CNC(=O)c2ccc(Nc3nc(N)c(C(=O)c4c(F)cccc4F)s3)cc2)cc(OC)c1 [Example G262] | 1% | 28% | 24% | 59% | 
C[C@@H](CN(C)C)N(C)C(=O)c1ccc(Nc2nc(N)c(C(=O)c3c(F)cccc3F)s2)cc1 [Example A36, 4-[4-Amino-5-(2,6-difluoro-benzoyl)-thiazol-2-ylamino]-N-(2-dimethylamino-1S-methyl-ethyl)-N-methyl-benzamide] |  |  |  |  | Ki [1]: 223 nM; Ki [2]: 44 nM; IC50 [3]: 780 nM
C[C@@H](CNC(=O)c1ccc(Nc2nc(N)c(C(=O)c3c(F)cccc3F)s2)cc1)N(C)C [Example A42, 4-[4-Amino-5-(2,6-difluoro-benzoyl)-thiazol-2-ylamino]-N-(2S-dimethylamino-propyl)-benzamide] |  |  |  |  | Ki [1]: 165 nM; Ki [2]: 23 nM; IC50 [3]: 150 nM
Nc1nc(Nc2ccc(C(=O)NCc3ccc(F)c(F)c3)cc2)sc1C(=O)c1c(F)cccc1F [Example G317] | 27% | 33% | 27% | 87% | 
Nc1nc(Nc2ccc(C(=O)N[C@H]3CCc4ccccc43)cc2)sc1C(=O)c1c(F)cccc1F [Example G184] |  |  |  |  | CDK2 % Inhibition at 0.03 μM ([1]; at 0.03 μM): 34%; CDK4 % Inhibition at 0.03 μM ([2]; at 0.03 μM): 36%; HCT-116 % Inhibition at 0.1 μM ([3]; HCT-116, at 0.1 μM): 17%; HCT-116 % Inhibition at 0.25 μM ([3]; HCT-116, at 0.25 μM): 58%
CN(C)c1ccc(NC(=O)c2ccc(Nc3nc(N)c(C(=O)c4c(F)cccc4F)s3)cc2)cc1 [Example A16, 4-[4-Amino-5-(2,6-difluoro-benzoyl)-thiazol-2-ylamino]-N-(4-dimethylamino-phenyl)-benzamide] |  |  |  |  | Ki [1]: 68 nM; Ki [2]: 25 nM; IC50 [3]: 170 nM

Continued, in another order:

CDK2 % Inhibition at 0.03 μM ([1]; 0.03 μM compound) | CDK4 % Inhibition at 0.03 μM ([2]; 0.03 μM compound) | Structure (SMILES) | HCT-116 % Inhibition at 0.1 μM ([3]; HCT-116 cells, 0.1 μM compound) | HCT-116 % Inhibition at 0.25 μM [3, 4] | further results
−7% | −5% | Nc1nc(Nc2ccc(C(=O)N[C@H](CO)CC3CCCCC3)cc2)sc1C(=O)c1c(F)cccc1F [Example G359] | 25% | 69% | 
18% | 11% | Nc1nc(Nc2ccc(C(=O)N(CCCO)Cc3ccccn3)cc2)sc1C(=O)c1c(F)cccc1F [Example G243] | 31% | 40% | 
−6% | 9% | Nc1nc(Nc2ccc(C(=O)Nc3cccc(F)c3)cc2)sc1C(=O)c1c(F)cccc1F [Example G289] | 7% | 62% | 
11% | 27% | COc1ccc(N2CCN(C(=O)c3ccc(Nc4nc(N)c(C(=O)c5c(F)cccc5F)s4)cc3)CC2)cc1 [Example G240] | 15% | 52% | 
28% | 20% | COc1ccc(CNC(=O)c2ccc(Nc3nc(N)c(C(=O)c4c(F)cccc4F)s3)cc2)c(OC)c1 [Example G254] | 35% | 75% | 
